The record followed here is US20230059009A1, “INHIBITORS OF LIN28 AND METHODS OF USE THEREOF” (The Regents of the University of California, priority 2019, published 2023).

In test [1] the target is T1, LIN28B/pre-let-7a-2 binding (Homo sapiens, UniProt Q6ZN17).
T1 construct: made in house; host or cells: stably transduced HEK cells; used as diluted protein lysate, not purified
T1 sequence (Q6ZN17 1-250): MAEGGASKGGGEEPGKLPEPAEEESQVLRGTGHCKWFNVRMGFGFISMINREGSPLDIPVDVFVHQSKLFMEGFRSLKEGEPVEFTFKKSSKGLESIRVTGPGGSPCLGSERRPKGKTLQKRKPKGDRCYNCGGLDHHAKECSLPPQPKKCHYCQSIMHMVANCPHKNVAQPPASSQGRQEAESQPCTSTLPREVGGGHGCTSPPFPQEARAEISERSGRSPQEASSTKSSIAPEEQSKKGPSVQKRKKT
The test is described as follows: FRET assay, EGFP-tagged LIN28B and BHQ-1 labelled pre-let-7a-2. The conditions noted are these: doses 1.25 uM-20 uM; compared with LN1632. The procedure: As described herein, compounds of formula (I) and (II) show Lin28/let-7 inhibitory activity in FRET assays in vitro and in LSCs and LSC-like Kasumi-1 cells. FRET assay was performed as previously described (51).
In order to improve binding and inhibitory capacity of a compound to LIN28b, we predicted the binding mode of LN1632 to LIN28B. […] With this model in hand, we synthesized novel compounds with improved binding capacity to Lin28b (JGJ002-JGJ008, FIG. 8). Compounds were screened using a previously described FRET-assay with an EGFP-tagged LIN28B as donor and a BHQ-1 quencher labelled pre-let-7a-2 (pre-let-7a-2-BHQ1) as acceptor (51). Briefly, recombinant LIN28B-EGFP was harvested from stably transduced HEK cells and diluted with binding buffer (300 mM NaCl, 25 mM HEPES pH 7.2, 10 μM ZnCl2, 1% Odyssey Blocking Buffer, 0.05% Tween 20, 0.5 mM TCEP) in order to adjust ideal FRET-quenching signal intensity. Protein lysate and compounds (JGJ001-JGJ008) were pre-incubated in doses ranging from 1.25 uM-20 uM for 20 min in 100 uL diluted protein lysate. Subsequently pre-let-7a-2-BHQ1 was added to the mixture (at 6.25 nM) and EGFP-LIN28B donor emission was measured using a Tecan Spark Plate Reader ([…], excitation at 488 nm, emission read-out at […], 30 flashes/s). […] Increased endogenous let-7 miRNA levels can target a panoply of LCS and cancer stem cell hallmark genes thus inhibiting tumor growth.
To test the structure-activity relationship, 39 LN1632-related analogs (JGJ001-39) were synthesized and their potency and specificity to inhibit LIN28B-RNA binding activity and upregulate mature let-7 miRNA levels was measured. […] The dual luciferase reporter assay was performed as previously described (89).

A further test relates to Kasumi-1. In words: Systemic Kasumi-1 AML xenograft. The format is in vivo, mice. The conditions noted are these: systemic Kasumi-1 xenograft; for Animal survival: IP 100 mg/kg every other day for 21 d; for Tumor burden (bioluminescence imaging): IP 100 mg/kg every other day, d+26. The procedure: Subsequently, the tumor suppressive effect of LN1632 in cancer in vivo was assessed. High LIN28B expressing THP-1 AML cells (2×10^6 cells) were implanted in NSGS mice (cell suspension in matrigel, 3:1) and at d+12 or d+8 (tumor size=50 mm^2) injection of LN1632 IP at 100 mg/kg daily was initiated. […] The effect of LN1632 in a systemic Kasumi-1 xenograft was also assessed. […] The effects of LN1632 to cytarabine chemotherapy (Ara-C) was also compared, as previously described (74). THP-1 AML cells were subcutaneously implanted (1.5×10^6 cells, high LIN28B) in NSGS mice. Daily IP injections with 100 mg/kg LN1632, 60 mg/kg cytarabine chemotherapy (Ara-C), or vehicle was started at +d3 post AML cell implantation and continued until the vehicle group reached maximal allowed tumor size (250 mm^2).

Test [2] deals with let-7a/b and let-7 target genes. In words: miRNA and let-7 target gene expression in primary AML patient cells. The note with it: primary AML cells from three relapsed patients; 80-120 μM, 72 h. The format is cell-based, human. The text has this: To measure the complete degree to which LN1632 regulates gene expression, we carried out RNA sequencing (RNAseq) in LSC-like Kasumi-1 cells. […] Importantly, we confirmed this gene expression pattern in primary AML cells from three relapsed patients (validated for LIN28B overexpression compared to healthy WBM). […] This is important because NFκB1, regulated by let-7 through IL6 (23) is, together with other BCL-2 family members (BAX, BCL2L15 and BMF, FIG. 5A), a well characterized gene associated with unique properties of LSC survival and AML relapse (45, 59, 60). […] We next explored the effect of LN1632 on primary AML cells.

A further test concerns AML pt #13 cells. In words: Engraftment of ex vivo treated primary AML pt #13 cells in NSGS. More on the design: species or system NSGS mice. The conditions noted are these: ex vivo treatment 120 μM for 72 h, 12 weeks.
The subject of a further test is MYC-driven cancers. In words: Cell viability and cell counting assays in cancer cells. The note with it: TNBC, CRPC, lung and colorectal adenocarcinoma cells. Format: cell-based. The procedure: To test whether LN1632 and novel analogs thereof affect cancer cell growth, cell viability and cell counting assays in TNBC (FIG. 14B-D), castration resistant prostate cancer cells (CRPC, FIG. 15A-C) and colorectal cancer cells (CRC, FIG. 15A-C) were performed.
To measure cell viability, cell titer glow (CTG, Promega CellTiter-Glo 2.0 Assay) and MTT assays (SigmaAldrich, Cell Proliferation Kit I) were performed. Briefly, cells were serum starved overnight prior to seeding in 96-well plates. Following 24 h incubation, cells were treated with increasing concentrations of JGJ compounds for 96 hr. At assay read-out, CellTiter-Glo reagent was added and luminescence was measured after 10-minutes incubation at room temperature. For the MTT assay, MTT labeling reagent was added and incubated for 4 h. Subsequently, medium was removed and 50 μL DMSO was added to solubilize the crystals, and absorbance was measured at 570 nm. Cell viability was calculated as (Sample-Background)/(Control-Background). Current standard of care drugs, Enzalutamide, Palbociclib and Cetuximab were used as comparative controls.

Entries after “also recorded” stand apart in the source; their conditions may differ.

Turning to `CC(=O)Nc1cccc(-c2ccc3ncc(C)n3n2)c1` [JGJ007, N-(3-(3-Methylimidazo[1,2-b]pyridazin-6-yl)phenyl)acetamide], the “Inhibition of LIN28B binding to pre-let-7a (FRET signal)” value in test [1] is on record as “greater inhibition of the LIN28B/pre-let-7a2 binding than the original compound LN1632”.
Regarding `CC(=O)N(C)c1cccc(-c2ccc3nnc(C)n3n2)c1` [LN1632], in the test on Kasumi-1 (100 mg/kg), the Animal survival entry is recorded as “significantly prolonged animal survival; also recorded: prolongs survival” and the “Tumor burden (bioluminescence imaging)” value is “decreased tumor burden; also recorded: reduces tumor burden”. In the test on Kasumi-1 (listed as 1632, 100 mg/kg), the Animal survival result is reported as “prolongs survival; also recorded: significantly prolonged animal survival” and the “Tumor burden (bioluminescence imaging)” value is “reduces tumor burden; also recorded: decreased tumor burden”. In test [2], the “Mature let-7a/b and let-7 target gene expression” value was “dose-dependent, significant upregulation of mature let-7a/b and downregulation of multiple let-7 target genes”. In addition, the “AML repopulation capability in vivo” value in the test with AML pt #13 cells was “inhibited AML repopulation capability in vivo”. The “Proliferation and apoptosis of cancer cells” value with MYC-driven cancers was “reduced proliferation and induced apoptosis preferentially in MYC-driven cancers”.
